Results: PubChem BioAssay AID248 (DTP/NCI, 2004)
Where “and” joins values, the source holds several entries; their conditions need not be identical. Equal entries are not always repeated. Toxic doses and inconclusive results are not listed. Rule as the data show it: active = T/C of 150% or more; inactive = T/C below 125%.

Tested on: L1210 leukemia ip in BDF1 mice, survival T/C
Test: NCI In Vivo Anticancer Drug Screen. Data for tumor model L1210 Leukemia (intraperitoneal) in B6D2F1 (BDF1) mice
Details: endpoint: mean survival time, higher = longer survival
Summary of the method: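 Antitumor effect is assessed in tumor-bearing animals. Survival in the compound arm is compared with a vehicle-dosed control arm and expressed as their quotient.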

[1] = dose: 100.0 mg/kg/injection, schedule: Q01DX009 (ip), vehicle: Klucel (hydroxypropylcellulose) (HPC)
[2] = dose: 100.0 mg/kg/injection, schedule: Q04DX003 (ip), vehicle: Klucel (hydroxypropylcellulose) (HPC)
[3] = dose: 200.0 mg/kg/injection, schedule: Q01DX009 (ip), vehicle: Klucel (hydroxypropylcellulose) (HPC)
[4] = dose: 200.0 mg/kg/injection, schedule: Q04DX003 (ip), vehicle: Klucel (hydroxypropylcellulose) (HPC)
[5] = dose: 400.0 mg/kg/injection, schedule: Q01DX009 (ip), vehicle: Klucel (hydroxypropylcellulose) (HPC)
[6] = dose: 400.0 mg/kg/injection, schedule: Q04DX003 (ip), vehicle: Klucel (hydroxypropylcellulose) (HPC)
[7] = dose: 100.0 mg/kg/injection, schedule: Q01DX009 (ip), vehicle: saline with Tween-80
[8] = dose: 100.0 mg/kg/injection, schedule: Q04DX003 (ip), vehicle: saline with Tween-80
[9] = dose: 200.0 mg/kg/injection, schedule: Q01DX009 (ip), vehicle: saline with Tween-80
[10] = dose: 200.0 mg/kg/injection, schedule: Q04DX003 (ip), vehicle: saline with Tween-80
[11] = dose: 400.0 mg/kg/injection, schedule: Q01DX009 (ip), vehicle: saline with Tween-80
[12] = dose: 400.0 mg/kg/injection, schedule: Q04DX003 (ip), vehicle: saline with Tween-80
[13] = dose: 25.0 mg/kg/injection, schedule: Q04DX003 (ip), vehicle: saline with Tween-80
[14] = dose: 4.0 mg/kg/injection, schedule: Q04DX003 (ip), vehicle: water
[15] = dose: 8.0 mg/kg/injection, schedule: Q04DX003 (ip), vehicle: water
[16] = dose: 25.0 mg/kg/injection, schedule: Q01DX009 (ip), vehicle: saline with Tween-80
[17] = dose: 50.0 mg/kg/injection, schedule: Q01DX009 (ip), vehicle: saline with Tween-80

Measured: T/C

COc1ccc(/C=C/C(=O)c2ccccc2)cc1OC
inactive: dose: 50.0 mg/kg/injection, schedule: Q01DX009 (ip), vehicle: Klucel (hydroxypropylcellulose) (HPC) 92 % of control and 103 % of control | [1] 105 % of control and 108 % of control | [2] 104 % of control | dose: 100.0 mg/kg/injection, schedule: Q04DX003 (ip), vehicle: water 93 % of control | [3] 99 % of control and 95 % of control | [4] 98 % of control | dose: 200.0 mg/kg/injection, schedule: Q04DX003 (ip), vehicle: water 102 % of control | [5] 93 % of control | [6] 91 % of control | dose: 400.0 mg/kg/injection, schedule: Q04DX003 (ip), vehicle: water 96 % of control

C/C=C(\C)C#N
inactive: dose: 22.0 mg/kg/injection, schedule: Q01DX Z (ip), vehicle: saline 102 % of control | dose: 33.0 mg/kg/injection, schedule: Q01DX Z (ip), vehicle: saline 93 % of control

Cc1ccc(NS(=O)(=O)c2ccc([N+](=O)[O-])cc2)c(C)c1
inactive: [7] 98 % of control | [8] 88 % of control | [9] 101 % of control | [10] 89 % of control | [11] 98 % of control | [12] 86 % of control

CCNc1nc2c(=O)[nH]c(N)nc2n1C1OC(CO)C(O)C1O (configuration not stated)
inactive: dose: 100.0 mg/kg/injection, schedule: Q01DX001 (ip), vehicle: carboxymethylcellulose (CMC) 107 % of control | dose: 200.0 mg/kg/injection, schedule: Q01DX001 (ip), vehicle: carboxymethylcellulose (CMC) 96 % of control | dose: 400.0 mg/kg/injection, schedule: Q01DX001 (ip), vehicle: carboxymethylcellulose (CMC) 107 % of control

O=C1OC(=O)C2C3C=CC(CC12)O3 (configuration not stated)
inactive: dose: 6.25 mg/kg/injection, schedule: Q01DX009 (ip), vehicle: saline with Tween-80 97 % of control | dose: 6.25 mg/kg/injection, schedule: Q04DX003 (ip), vehicle: saline with Tween-80 96 % of control | dose: 12.5 mg/kg/injection, schedule: Q01DX009 (ip), vehicle: saline with Tween-80 97 % of control | dose: 12.5 mg/kg/injection, schedule: Q04DX003 (ip), vehicle: saline with Tween-80 91 % of control | [13] 94 % of control

COc1ccc([N+](=O)[O-])cc1/C=C/C=O
inactive: dose: 100.0 mg/kg/injection, schedule: Q01DX001 (ip), vehicle: saline 100 % of control | dose: 200.0 mg/kg/injection, schedule: Q01DX001 (ip), vehicle: saline 92 % of control | dose: 400.0 mg/kg/injection, schedule: Q01DX001 (ip), vehicle: saline 100 % of control

C[CH2][Pb]([CH2]C)([CH2]C)[O]C(=O)COc1ccccc1
inactive: dose: 0.75 mg/kg/injection, schedule: Q01DX009 (ip), vehicle: Klucel (hydroxypropylcellulose) (HPC) 98 % of control | dose: 0.75 mg/kg/injection, schedule: Q04DX003 (ip), vehicle: saline with Tween-80 96 % of control | dose: 1.5 mg/kg/injection, schedule: Q01DX009 (ip), vehicle: Klucel (hydroxypropylcellulose) (HPC) 95 % of control | dose: 1.5 mg/kg/injection, schedule: Q04DX003 (ip), vehicle: saline with Tween-80 95 % of control | dose: 3.0 mg/kg/injection, schedule: Q01DX009 (ip), vehicle: Klucel (hydroxypropylcellulose) (HPC) 106 % of control | dose: 3.0 mg/kg/injection, schedule: Q04DX003 (ip), vehicle: saline with Tween-80 101 % of control | dose: 6.0 mg/kg/injection, schedule: Q01DX009 (ip), vehicle: Klucel (hydroxypropylcellulose) (HPC) 102 % of control | dose: 6.0 mg/kg/injection, schedule: Q04DX003 (ip), vehicle: saline with Tween-80 91 % of control | dose: 12.0 mg/kg/injection, schedule: Q04DX003 (ip), vehicle: saline with Tween-80 101 % of control | dose: 12.5 mg/kg/injection, schedule: Q04DX002 (ip), vehicle: Klucel (hydroxypropylcellulose) (HPC) 103 % of control | dose: 25.0 mg/kg/injection, schedule: Q04DX002 (ip), vehicle: Klucel (hydroxypropylcellulose) (HPC) 97 % of control

CC1(C)OC2C(CNCCO)OC(OCc3ccccc3)C2O1 (configuration not stated)
inactive: dose: 50.0 mg/kg/injection, schedule: Q04DX003 (ip), vehicle: saline 102 % of control | dose: 100.0 mg/kg/injection, schedule: Q04DX003 (ip), vehicle: saline 94 % of control | dose: 200.0 mg/kg/injection, schedule: Q04DX003 (ip), vehicle: saline 88 % of control

COc1cc2c(cc1OC)C(CC1=CCN3CCC4=C(C=CCC4)C3C1)NCC2 (configuration not stated)
inactive: [14] 106 % of control | [15] 101 % of control | dose: 16.0 mg/kg/injection, schedule: Q04DX003 (ip), vehicle: water 102 % of control | dose: 32.0 mg/kg/injection, schedule: Q04DX003 (ip), vehicle: water 101 % of control | dose: 64.0 mg/kg/injection, schedule: Q04DX003 (ip), vehicle: water 112 % of control

COc1cccc2c1C(=O)c1c(O)c3c(c(O)c1C2=O)C[C@@](O)(/C(C)=N/NC(N)=S)C[C@@H]3OC1CC(N)C(O)C(C)O1 (some centres not stated)
inactive: dose: 0.25 mg/kg/injection, schedule: Q04DX003 (ip), vehicle: water 102 % of control | dose: 0.5 mg/kg/injection, schedule: Q04DX003 (ip), vehicle: water 110 % of control | dose: 1.0 mg/kg/injection, schedule: Q01DX009 (ip), vehicle: water 121 % of control | dose: 1.0 mg/kg/injection, schedule: Q04DX003 (ip), vehicle: water 107 % of control | dose: 2.0 mg/kg/injection, schedule: Q01DX009 (ip), vehicle: water 119 % of control | dose: 2.0 mg/kg/injection, schedule: Q04DX003 (ip), vehicle: water 104 % of control | [14] 114 % of control | dose: 7.0 mg/kg/injection, schedule: Q04DX003 (ip), vehicle: water 122 % of control | [15] 107 % of control | dose: 10.6 mg/kg/injection, schedule: Q04DX003 (ip), vehicle: water 120 % of control | dose: 24.0 mg/kg/injection, schedule: Q04DX003 (ip), vehicle: water 122 % of control | dose: 32.0 mg/kg/injection, schedule: Q01DX009 (ip), vehicle: water 124 % of control

COc1ccc(C(=O)Nc2ccccc2)cc1NC(=O)Nc1ccccc1C(F)(F)F
inactive: [1] 92 % of control | [3] 101 % of control | [5] 95 % of control

Cc1cc(OC(=O)Nc2c(C)cccc2C)cc(C)c1Cl
inactive: dose: 25.0 mg/kg/injection, schedule: Q01DX001 (ip), vehicle: saline with Tween-80 93 % of control | [16] 111 % of control and 89 % of control | [13] 107 % of control | dose: 50.0 mg/kg/injection, schedule: Q01DX001 (ip), vehicle: saline with Tween-80 88 % of control | [17] 100 % of control and 114 % of control | dose: 50.0 mg/kg/injection, schedule: Q04DX002 (ip), vehicle: saline with Tween-80 94 % of control and 102 % of control | dose: 50.0 mg/kg/injection, schedule: Q04DX003 (ip), vehicle: saline with Tween-80 93 % of control | [8] 91 % of control | [9] 93 % of control | [10] 92 % of control | [11] 93 % of control | [12] 103 % of control

CCCCCCCCCCCCCCCCOc1ccc(C2=NCC(C)S2)c(C)c1 (configuration not stated)
inactive: [1] 101 % of control | [3] 96 % of control | [5] 97 % of control

Nc1n[nH]c(N)n1.[Ni]
inactive: [7] 101 % of control | [8] 113 % of control | [9] 111 % of control | [10] 103 % of control | [11] 104 % of control | [12] 98 % of control

COc1cc(-c2ccc(NC(=O)CC(C)=O)c(OC)c2)ccc1NC(=O)CC(C)=O
inactive: [7] 94 % of control | [8] 92 % of control | [9] 101 % of control | [10] 91 % of control | [11] 99 % of control | [12] 89 % of control

CC(=O)Nc1ccc(OCCOC(=O)Nc2ccccc2C(F)(F)F)cc1
inactive: [1] 91 % of control | [3] 105 % of control | [5] 93 % of control

CCCCNC(=O)C1C=C2c3cccc4c3C(CN4)CC2N(C)C1 (configuration not stated)
inactive: [16] 87 % of control | [17] 89 % of control

N#Cc1cc2c3ccccc3ncc2c2ccccc12
inactive: [2] 91 % of control | [3] 96 % of control | [4] 89 % of control | [6] 89 % of control

CCC/C(=N\Nc1ccc([N+](=O)[O-])cc1[N+](=O)[O-])c1cccc([N+](=O)[O-])c1
inactive: [2] 93 % of control | [4] 92 % of control | [6] 97 % of control
